This assay concerns nude mice, HT29 intrarenal xenograft, tumor weight T/C. Nature of the assay: NCI In Vivo Anticancer Drug Screen. Data for tumor model HT29;CX-1 Human Adenocarcinoma (MER+) (intrarenal inoculation) in NU/NU Swiss (nude) mice. Particulars: endpoint: mean tumor weight change, higher = larger tumour. The gist of the method:
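Endpoint measured as tumor size or survival; ratio reported is treated group over vehicle controls.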

[1] abbreviates: dose: 600.0 mg/kg/injection, schedule: Q04DX004 (sc), vehicle: Klucel (hydroxypropylcellulose) (HPC).
[2] abbreviates: dose: 150.0 mg/kg/injection, schedule: Q04DX004 (sc), vehicle: saline with Tween-80.
Setting [3] is: dose: 300.0 mg/kg/injection, schedule: Q04DX004 (sc), vehicle: saline with Tween-80.
Setting [4] is: dose: 600.0 mg/kg/injection, schedule: Q04DX004 (sc), vehicle: saline with Tween-80.
The mark [5] stands for this setting: dose: 1200.0 mg/kg/injection, schedule: Q04DX004 (sc), vehicle: saline with Tween-80.

Each structure is given as a SMILES string. Inconclusive results are not listed.

Regarding `O=c1s[se]c2ccccc12`, the T/C is 108 % of control (dose: 75.0 mg/kg/injection, schedule: Q04DX004 (sc), vehicle: Klucel (hydroxypropylcellulose) (HPC)); 48 % of control (dose: 150.0 mg/kg/injection, schedule: Q04DX004 (sc), vehicle: Klucel (hydroxypropylcellulose) (HPC)); 74 % of control under setting [1].

`COc1ccc(Cl)[n+]([O-])n1`: the T/C runs as follows: (dose: 50.0 mg/kg/injection, schedule: Q04DX004 (sc), vehicle: Klucel (hydroxypropylcellulose) (HPC)) 64 % of control; (dose: 100.0 mg/kg/injection, schedule: Q04DX004 (sc), vehicle: Klucel (hydroxypropylcellulose) (HPC)) 66 % of control.

As for `Cc1ccc(C2NC(=S)N3C(c4ccc(C)cc4)NC(=S)N23)cc1` (stereo unspecified), the T/C is, setting by setting: (dose: 300.0 mg/kg/injection, schedule: Q04DX004 (sc), vehicle: Klucel (hydroxypropylcellulose) (HPC)) 75 % of control; under setting [1], 80 % of control; (dose: 1200.0 mg/kg/injection, schedule: Q04DX004 (sc), vehicle: Klucel (hydroxypropylcellulose) (HPC)) 69 % of control; (dose: 2400.0 mg/kg/injection, schedule: Q04DX004 (sc), vehicle: Klucel (hydroxypropylcellulose) (HPC)) 75 % of control.

With `O=CC(=O)c1ccc(O)cc1`, the T/C (dose: 150.0 mg/kg/injection, schedule: Q04DX004 (sc), vehicle: saline) is 73 % of control; the T/C (dose: 300.0 mg/kg/injection, schedule: Q04DX004 (sc), vehicle: saline) is 67 % of control; the T/C (dose: 600.0 mg/kg/injection, schedule: Q04DX004 (sc), vehicle: saline) is 56 % of control.

For `CSCS(=O)C[C@H](CO)NC(=O)/C=C/c1c(C)[nH]c(=O)[nH]c1=O` (stereo partly specified), the T/C (dose: 0.75 mg/kg/injection, schedule: Q04DX004 (sc), vehicle: saline) was 111 % of control and the T/C (dose: 1.5 mg/kg/injection, schedule: Q04DX004 (sc), vehicle: saline) was 81 % of control.

In the case of `O=C(O)CC(NC(=O)CP(=O)(O)O)C(=O)O.[NH-]C1CCCCC1[NH-].[Pt+2]` (stereo unspecified), the T/C (dose: 6.25 mg/kg/injection, schedule: Q04DX004 (sc), vehicle: dextrose) was 97 % of control; the T/C (dose: 12.5 mg/kg/injection, schedule: Q04DX004 (sc), vehicle: dextrose) was 25 % of control; the T/C (dose: 25.0 mg/kg/injection, schedule: Q04DX004 (sc), vehicle: dextrose) was 35 % of control.

With `CC1=NNC(=O)C1CCO` (stereo unspecified), the T/C reads like this: (dose: 200.0 mg/kg/injection, schedule: Q04DX004 (sc), vehicle: Klucel (hydroxypropylcellulose) (HPC)) 66 % of control; (dose: 400.0 mg/kg/injection, schedule: Q04DX004 (sc), vehicle: Klucel (hydroxypropylcellulose) (HPC)) 44 % of control; (dose: 800.0 mg/kg/injection, schedule: Q04DX004 (sc), vehicle: Klucel (hydroxypropylcellulose) (HPC)) 99 % of control; (dose: 1600.0 mg/kg/injection, schedule: Q04DX004 (sc), vehicle: Klucel (hydroxypropylcellulose) (HPC)) 63 % of control.

Consider `CCC1OCC(C(Cl)CCl)O1` (stereo unspecified), for which the T/C runs as follows: (dose: 37.5 mg/kg/injection, schedule: Q01DX014 (sc), vehicle: Klucel (hydroxypropylcellulose) (HPC)) 100 % of control; (dose: 37.5 mg/kg/injection, schedule: Q04DX014 (sc), vehicle: Klucel (hydroxypropylcellulose) (HPC)) 58 % of control; (dose: 75.0 mg/kg/injection, schedule: Q01DX014 (sc), vehicle: Klucel (hydroxypropylcellulose) (HPC)) 193 % of control; (dose: 75.0 mg/kg/injection, schedule: Q04DX014 (sc), vehicle: Klucel (hydroxypropylcellulose) (HPC)) 30 % of control; (dose: 150.0 mg/kg/injection, schedule: Q01DX014 (sc), vehicle: Klucel (hydroxypropylcellulose) (HPC)) 86 % of control; (dose: 150.0 mg/kg/injection, schedule: Q04DX014 (sc), vehicle: Klucel (hydroxypropylcellulose) (HPC)) 1 % of control. Also, the T/C was 122 % of control (dose: 300.0 mg/kg/injection, schedule: Q01DX014 (sc), vehicle: Klucel (hydroxypropylcellulose) (HPC)); 83 % of control (dose: 300.0 mg/kg/injection, schedule: Q04DX004 (sc), vehicle: other); -30 % of control (dose: 300.0 mg/kg/injection, schedule: Q04DX014 (sc), vehicle: Klucel (hydroxypropylcellulose) (HPC)); 25 % of control (dose: 600.0 mg/kg/injection, schedule: Q01DX014 (sc), vehicle: Klucel (hydroxypropylcellulose) (HPC)); 21 % of control (dose: 600.0 mg/kg/injection, schedule: Q04DX004 (sc), vehicle: other); -99 % of control (dose: 600.0 mg/kg/injection, schedule: Q04DX014 (sc), vehicle: Klucel (hydroxypropylcellulose) (HPC)).

Consider `CCOC(=O)c1[nH]c2cccc3c2c1CC(Br)C3=O` (stereo unspecified), for which the T/C by setting is: under setting [2], 81 % of control; under setting [3], 81 % of control; under setting [4], 71 % of control; under setting [5], 71 % of control.

Regarding `CCC/C=C/C=C/C(=O)OC1/C(=C/C(=O)OC)CC2CC(C(C)O)OC(=O)CC(O)CC3CC(OC(C)=O)C(C)(C)C(O)(CC4C/C(=C/C(=O)OC)CC(/C=C/C(C)(C)C1(O)O2)O4)O3` (stereo unspecified), the T/C is 95 % of control (dose: 0.25 mg/kg/injection, schedule: Q04DX004 (sc), vehicle: saline + alcohol); 110 % of control (dose: 0.5 mg/kg/injection, schedule: Q04DX004 (sc), vehicle: saline + alcohol); 33 % of control (dose: 1.0 mg/kg/injection, schedule: Q04DX004 (sc), vehicle: saline + alcohol); 47 % of control (dose: 2.0 mg/kg/injection, schedule: Q04DX004 (sc), vehicle: saline + alcohol); 53 % of control (dose: 4.0 mg/kg/injection, schedule: Q04DX004 (sc), vehicle: saline + alcohol); 88 % of control (dose: 8.0 mg/kg/injection, schedule: Q04DX004 (sc), vehicle: saline + alcohol).

As for `NC(=S)N/N=C\c1ncccc1OCc1cccc(N)c1`, the T/C is, setting by setting: (dose: 225.0 mg/kg/injection, schedule: Q04DX004 (sc), vehicle: saline with Tween-80) 220 % of control; (dose: 450.0 mg/kg/injection, schedule: Q04DX004 (sc), vehicle: saline with Tween-80) 102 % of control; (dose: 900.0 mg/kg/injection, schedule: Q04DX004 (sc), vehicle: saline with Tween-80) 121 % of control; (dose: 1800.0 mg/kg/injection, schedule: Q04DX004 (sc), vehicle: saline with Tween-80) 99 % of control.

As to `CC1CN=C(c2ccc(NC(=O)c3ccc(C(=O)Nc4ccc(C5=NCC(C)N5)cc4)cc3)cc2)N1` (stereo unspecified), the T/C is, setting by setting: (dose: 25.0 mg/kg/injection, schedule: Q01DX010 (sc), vehicle: Klucel (hydroxypropylcellulose) (HPC)) 65 % of control; (dose: 50.0 mg/kg/injection, schedule: Q01DX010 (sc), vehicle: Klucel (hydroxypropylcellulose) (HPC)) 34 % of control; (dose: 100.0 mg/kg/injection, schedule: Q01DX010 (sc), vehicle: Klucel (hydroxypropylcellulose) (HPC)) 37 % of control; (dose: 200.0 mg/kg/injection, schedule: Q01DX010 (sc), vehicle: Klucel (hydroxypropylcellulose) (HPC)) 44 % of control.

On to `Cc1cc(O)c(N=Nc2ccc(C(=O)O)cc2)cc1C`, for which the T/C runs as follows: under setting [4], 107 % of control; (dose: 2400.0 mg/kg/injection, schedule: Q04DX004 (sc), vehicle: saline with Tween-80) 154 % of control.

Turning to `BrC[P+](CBr)(CBr)CBr`, the T/C was 86 % of control (dose: 50.0 mg/kg/injection, schedule: Q04DX004 (sc), vehicle: saline with Tween-80); 57 % of control (dose: 100.0 mg/kg/injection, schedule: Q04DX004 (sc), vehicle: saline with Tween-80); 82 % of control (dose: 200.0 mg/kg/injection, schedule: Q04DX004 (sc), vehicle: saline with Tween-80); 103 % of control (dose: 400.0 mg/kg/injection, schedule: Q04DX004 (sc), vehicle: saline with Tween-80).

On to `CCCCCC#CC1OC12CCCCC2` (stereo unspecified), for which the T/C was 74 % of control under setting [2], 62 % of control under setting [3], 77 % of control under setting [4] and 100 % of control under setting [5].

With `Cc1c(N)nc(C(CC(N)=O)NCC(N)C(N)=O)nc1C(=O)NC(C(=O)NC(C)C(O)CC(=O)NC(C(=O)NC(OC1OC(C)C(N)C(O)C1O)C(O)c1nc(-c2nc(C(=O)NCCCC(N)CC(=O)NCCCNCCCCN)cs2)cs1)C(C)O)C(OC1OC(CO)C(O)C(O)C1OC1OC(CO)C(O)C(OC(N)=O)C1O)c1cnc[nH]1` (stereo unspecified), the T/C is, setting by setting: (dose: 8.0 mg/kg/injection, schedule: Q04DX004 (sc), vehicle: saline) 17 % of control; (dose: 16.0 mg/kg/injection, schedule: Q04DX004 (sc), vehicle: saline) 21 % of control.

With `Nc1n[n+](-c2ccc(Cl)cc2)no1`, the T/C was 95 % of control (dose: 25.0 mg/kg/injection, schedule: Q04DX004 (sc), vehicle: water); 121 % of control (dose: 50.0 mg/kg/injection, schedule: Q04DX004 (sc), vehicle: water); 102 % of control (dose: 100.0 mg/kg/injection, schedule: Q04DX004 (sc), vehicle: water).

The values are drawn from PubChem BioAssay AID206 (DTP/NCI, 2004).
